# Read-outs that look alike come from different tables or passages of the source.
# How the values were obtained:
# [1] = target: T1, PBP3 of K. pneumoniae SR22291 (Klebsiella pneumoniae, UniProt A0A0H3GN85); test: competition with […]benzylpenicillin for PBPs; type: binding; details: covalent
# T1 construct: gene ftsI
# T1 sequence (A0A0H3GN85 1-588): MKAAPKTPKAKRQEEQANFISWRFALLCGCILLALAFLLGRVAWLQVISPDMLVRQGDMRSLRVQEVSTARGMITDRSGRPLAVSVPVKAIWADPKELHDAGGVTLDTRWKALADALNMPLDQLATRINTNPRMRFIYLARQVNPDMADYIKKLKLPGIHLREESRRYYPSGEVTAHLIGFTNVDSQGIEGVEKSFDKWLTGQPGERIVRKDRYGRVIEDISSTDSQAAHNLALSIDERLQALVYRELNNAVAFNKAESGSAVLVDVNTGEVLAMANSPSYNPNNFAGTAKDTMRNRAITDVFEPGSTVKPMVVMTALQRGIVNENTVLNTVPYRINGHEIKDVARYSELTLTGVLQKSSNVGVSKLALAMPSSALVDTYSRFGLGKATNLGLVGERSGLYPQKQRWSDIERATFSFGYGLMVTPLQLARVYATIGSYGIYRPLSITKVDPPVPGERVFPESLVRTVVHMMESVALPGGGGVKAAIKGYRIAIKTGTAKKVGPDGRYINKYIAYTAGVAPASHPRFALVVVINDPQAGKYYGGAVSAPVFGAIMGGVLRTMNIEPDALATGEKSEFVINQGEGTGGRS
# [2] = target: T2, PBP2 of K. pneumoniae SR22291 (Klebsiella pneumoniae, UniProt A6T696); test: competition with […]benzylpenicillin for PBPs; type: binding; details: covalent
# T2 construct: gene mrdA
# T2 sequence (A6T696 1-633): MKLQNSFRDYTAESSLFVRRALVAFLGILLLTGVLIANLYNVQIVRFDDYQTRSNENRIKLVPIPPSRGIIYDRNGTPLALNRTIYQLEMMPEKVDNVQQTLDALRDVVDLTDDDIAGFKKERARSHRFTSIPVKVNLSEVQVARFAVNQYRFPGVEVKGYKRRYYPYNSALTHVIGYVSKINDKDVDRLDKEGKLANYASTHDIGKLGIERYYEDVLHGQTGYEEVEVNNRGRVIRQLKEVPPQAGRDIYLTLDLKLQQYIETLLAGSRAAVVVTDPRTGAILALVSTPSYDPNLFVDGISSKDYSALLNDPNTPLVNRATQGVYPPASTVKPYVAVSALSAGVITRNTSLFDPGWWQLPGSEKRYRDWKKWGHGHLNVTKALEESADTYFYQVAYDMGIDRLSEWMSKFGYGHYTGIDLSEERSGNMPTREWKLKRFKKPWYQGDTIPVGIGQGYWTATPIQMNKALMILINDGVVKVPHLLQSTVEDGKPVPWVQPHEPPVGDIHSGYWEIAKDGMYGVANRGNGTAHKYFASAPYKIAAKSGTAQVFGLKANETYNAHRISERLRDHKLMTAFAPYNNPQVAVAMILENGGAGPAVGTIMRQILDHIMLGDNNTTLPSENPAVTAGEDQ
# [3] = target: T3, PBP1b of K. pneumoniae SR22291 (Klebsiella pneumoniae, UniProt A0ACD7TXF1); test: competition with […]benzylpenicillin for PBPs; type: binding; details: covalent
# T3 construct: gene mrcB
# T3 sequence (A0ACD7TXF1 1-850): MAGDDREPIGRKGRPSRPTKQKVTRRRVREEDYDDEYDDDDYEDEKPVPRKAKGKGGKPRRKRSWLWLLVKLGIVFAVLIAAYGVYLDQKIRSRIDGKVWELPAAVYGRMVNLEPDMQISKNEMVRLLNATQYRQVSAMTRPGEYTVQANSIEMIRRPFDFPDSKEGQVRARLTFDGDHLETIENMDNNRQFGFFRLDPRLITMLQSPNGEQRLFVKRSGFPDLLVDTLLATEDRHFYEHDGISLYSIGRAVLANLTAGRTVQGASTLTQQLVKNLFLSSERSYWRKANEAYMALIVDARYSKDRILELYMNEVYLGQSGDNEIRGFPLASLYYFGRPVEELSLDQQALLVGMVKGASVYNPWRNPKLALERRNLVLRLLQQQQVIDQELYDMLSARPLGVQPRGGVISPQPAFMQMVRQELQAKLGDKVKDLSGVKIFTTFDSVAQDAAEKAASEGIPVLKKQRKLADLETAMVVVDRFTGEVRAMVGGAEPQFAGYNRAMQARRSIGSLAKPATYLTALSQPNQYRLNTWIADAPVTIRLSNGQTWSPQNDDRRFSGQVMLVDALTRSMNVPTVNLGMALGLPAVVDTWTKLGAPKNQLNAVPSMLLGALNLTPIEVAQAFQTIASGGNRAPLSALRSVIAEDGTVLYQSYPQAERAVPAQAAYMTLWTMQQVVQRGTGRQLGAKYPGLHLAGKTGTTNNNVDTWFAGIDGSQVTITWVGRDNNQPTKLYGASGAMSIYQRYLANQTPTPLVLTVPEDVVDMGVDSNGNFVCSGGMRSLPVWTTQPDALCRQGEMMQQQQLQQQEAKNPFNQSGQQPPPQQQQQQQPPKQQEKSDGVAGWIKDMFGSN
# [4] = tested on: T4, PBP1a and PBP1b of A. baumannii ATCC 17978 (not separated); test: competition with Bocillin FL for PBPs; type: binding, Acinetobacter baumannii; details: covalent; joint value for PBP1a and PBP1b
# T4 construct: gene ponA; one joint IC50 for PBP1a and PBP1b
# Text: competition with Bocillin FL for PBPs on PBP1a and PBP1b of A. baumannii ATCC 17978 (not separated)
# [5] = target: T5, PBP3 of P. aeruginosa ATCC 27853 (Pseudomonas aeruginosa, UniProt G3XD46); test: competition with […]benzylpenicillin for PBPs; type: binding; details: covalent
# T5 construct: gene ftsI
# [6] = read-out: IC50 (μg/ml) / K. pneumoniae SR22291 / Cefiderocol (converted)
# [7] = read-out: IC50 (μg/ml) / K. pneumoniae SR22291 / Ceftazidime (converted)
# T5 sequence (G3XD46 whole entry): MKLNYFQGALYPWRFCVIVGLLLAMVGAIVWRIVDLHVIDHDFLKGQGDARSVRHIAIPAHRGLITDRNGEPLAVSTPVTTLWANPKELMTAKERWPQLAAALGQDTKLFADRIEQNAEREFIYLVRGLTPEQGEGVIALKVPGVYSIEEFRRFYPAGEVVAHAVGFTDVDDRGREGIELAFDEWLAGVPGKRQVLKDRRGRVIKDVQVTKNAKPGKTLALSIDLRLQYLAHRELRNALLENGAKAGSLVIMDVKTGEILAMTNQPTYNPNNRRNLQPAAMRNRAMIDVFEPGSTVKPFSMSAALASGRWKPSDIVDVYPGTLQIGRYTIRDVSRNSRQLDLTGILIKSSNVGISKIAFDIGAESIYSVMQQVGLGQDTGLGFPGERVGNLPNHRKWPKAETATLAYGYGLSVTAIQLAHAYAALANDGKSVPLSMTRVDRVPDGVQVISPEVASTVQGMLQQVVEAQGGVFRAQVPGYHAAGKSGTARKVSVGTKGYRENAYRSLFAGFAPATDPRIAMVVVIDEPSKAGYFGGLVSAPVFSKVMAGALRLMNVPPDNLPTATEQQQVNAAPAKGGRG
Compound,"IC50 [1, 6] [nM]","IC50 [2, 6] [nM]","IC50 [3, 6] [nM]",IC50 (μg/ml) / A. baumannii ATCC 17978 ^a / Cefiderocol [4] [µg/mL],IC50 ([5]; read-out: IC50 (μg/ml) / / Cefiderocol (converted)) [nM],"IC50 [1, 7] [nM]","IC50 [2, 7] [nM]","IC50 [3, 7] [nM]",IC50 (μg/ml) / A. baumannii ATCC 17978 ^a / Ceftazidime [4] [µg/mL],IC50 ([5]; read-out: IC50 (μg/ml) / P. aeruginosa ATCC 27853 / Ceftazidime (converted)) [nM]
CC(C)(O/N=C(\C(=O)N[C@@H]1C(=O)N2C(C(=O)[O-])=C(C[N+]3(CCNC(=O)c4ccc(O)c(O)c4Cl)CCCC3)CS[C@H]12)c1csc(N)n1)C(=O)O [cefiderocol],82.4,83.8,4650,1.05,79.8,–,–,–,–,–
CC(C)(O/N=C(\C(=O)N[C@@H]1C(=O)N2C(C(=O)[O-])=C(C[n+]3ccccc3)CS[C@H]12)c1csc(N)n1)C(=O)O [ceftazidime],–,–,–,–,–,402,750,4210,0.91,165
